Experimental data reported in patent US5922723A, “Pharmaceutical compositions for prevention and treatment of central nervous system disorders” (priority 1996, dated 1999).
pEC50, pKi: −log10 of the molar value. Counter-ions that a name gives are not always drawn.

Experiments:
[1] = molecular target: T1, muscle-like nicotinic receptors (human clonal line TE671/RD) (Homo sapiens, UniProt P02708+P07510+Q07001); type: cell-based; conditions: for effects at muscle sites (in words): summary of Table I; for Muscle Effect: te671/rd cells
T1 construct: these cells express muscle-like nicotinic receptors; endogenous in cells; host or cells: TE671/RD (human embryonal rhabdomyosarcoma clonal line), intact cells
Procedure: Discussion concerning the heterogeneity of nicotinic receptors subtypes is set forth in Lukas et al., Internatl. […] Acetylcholine nicotinic receptors expressed in rat ganglia share a very high degree of homology with their human counterparts. See, Fornasari et al., Neurosci. […] Intact cells on dishes were used for functional studies.
Specific ion efflux was determined as the difference in isotope efflux between total and non-specific efflux samples.

[2] = molecular target: T2, ganglionic-type neuronal nicotinic receptors (rat pheochromocytoma clonal line PC12) (Rattus norvegicus, UniProt P04757+P12392); type: cell-based; conditions: for Ganglion Effect: pc12 cells; for effects at ganglionic sites (in words): summary of Table I
T2 construct: tumor of the rat adrenal medulla expressing ganglionic-typeneuronal nicotinic receptors; endogenous in cells; host or cells: PC12 (rat pheochromocytoma clonal line), intact cells

[3] = system: synaptosomes from the striatal area of rat brain (dopamine release); experiment: Dopamine release from synaptosomes of the striatal area of rat brain; type: biochemical, rat (Sprague-Dawley); conditions: for pEC50: [3H]-dopamine; for dopamine release (in words): summary of Table I
Procedure: Striata from 4 rats were homogenized in 2 ml of 0.32 M sucrose buffered with 5 mM HEPES (pH 7.5), using a glass-Teflon tissue grinder. The homogenate was diluted to 5 ml with additional homogenization solution and centrifuged at 1,000× g for 10 min. This procedure was repeated on the new pellet and the resulting supernatant was centrifuged at 12,000× g for 20 min. A 3 layer discontinuous Percoll gradient consisting of 16 percent, 10 percent and 7.5 percent Percoll in HEPES-buffered sucrose was made with the final pellet dispersed in the top layer. […] The new pellet was collected and re-suspended in perfusion buffer. The synaptosome suspension was incubated for 10 min. at 37° C. [^3 H]-Dopamine (Amersham, 40-60 Ci/mmol) was added to the suspension to give a final concentration of 0.1 uM, and the suspension was incubated for another 5 min. […] A continuous perfusion system was used to monitor release following exposure to each ligand. Synaptosomes were loaded onto glass fiber filters (Gelman type A/E). Perfusion buffer was dripped onto the filters (0.2-0.3 ml/min.) and pulled through the filters with a peristaltic pump. Synaptosomes were washed with perfusion buffer for a minimum of 20 min. before addition of the ligand. After the addition of 0.2 ml of a solution containing various concentrations of ligand, the perfusate was collected into scintillation vials at 1 min. intervals and the dopamine released was quantified by scintillation counting. Peaks of radioactivity released above background were summed and the average basal release during that time was subtracted from the total.

CNS nicotinic receptors = experiment: Inhibition of L-[3H]nicotine binding to rat brain membrane preparations; design: species or system rat (Sprague-Dawley); conditions: for pKi: 10 nM L-[3H]nicotine, 2 hr at 4° C., rat brain membranes, calculated from IC50 (Cheng et al.); for binding to CNS nicotinic receptors (in words): summary of Table I
Procedure: Rats (Sprague-Dawley) were maintained on a 12 hour light/dark cycle and were allowed free access to water and food supplied by Wayne Lab Blox, Madison, Wis. Animals used in the present studies weighed 200 to 250 g. Brain membrane preparations were obtained from brain tissue of either males or females.
Rats were killed by decapitation following anesthesia with 70% CO2. Brains were removed and placed on an ice-cold platform. […] The resulting homogenate was centrifuged at 18,000× g for 20 min. and the resulting pellet was resuspended in 20 volumes of water. After 60 min. incubation at 4° C., a new pellet was collected by centrifugation at 18,000× g for 20 min. After resuspension in 10 volumes of buffer, a new final pellet was again collected by centrifugation at 18,000× g for 20 min. Prior to each centrifugation step, the suspension was incubated at 37° C. for 5 min. to promote hydrolysis of endogenous acetylcholine. The final pellet was overlayered with buffer and stored at -70° C. On the day of the assay, that pellet was thawed, resuspended in buffer and centrifuged at 18,000× g for 20 min. The pellet obtained was resuspended in buffer to a final concentration of approximately 5 mg protein/ml.
The binding of L-[^3 H]nicotine was measured using a 2 hr. incubation at 4° C. Incubations contained about 500 μg of protein and were conducted in 12 mm×75 mm polypropylene test tubes in a final incubation volume of 250 μl. The incubation buffer was Krebs-Ringers HEPES containing 200 mM TRIS buffer, pH 7.5. The binding reaction was terminated by filtration of the protein containing bound ligand onto glass fiber filters (Micro Filtration Systems) that had been soaked in buffer containing 0.5 percent polyethyleneimine. Filtration vacuum was -50 to -100 torr. Each filter was washed five times with 3 ml of ice-cold buffer. The filtration apparatus was cooled to 2° C. before use and was kept cold through the filtration process. Nonspecific binding was determined by inclusion of 10 uM nonradioactive nicotine in the incubations.
The inhibition of L-[^3 H]nicotine binding by test compounds was determined by including one of eight different concentrations of the test compound in the incubation.

[4] = rat striatal synaptosomes, % of release by equal concentration of (S)-(-)-nicotine

T1 sequence (P02708 21-457): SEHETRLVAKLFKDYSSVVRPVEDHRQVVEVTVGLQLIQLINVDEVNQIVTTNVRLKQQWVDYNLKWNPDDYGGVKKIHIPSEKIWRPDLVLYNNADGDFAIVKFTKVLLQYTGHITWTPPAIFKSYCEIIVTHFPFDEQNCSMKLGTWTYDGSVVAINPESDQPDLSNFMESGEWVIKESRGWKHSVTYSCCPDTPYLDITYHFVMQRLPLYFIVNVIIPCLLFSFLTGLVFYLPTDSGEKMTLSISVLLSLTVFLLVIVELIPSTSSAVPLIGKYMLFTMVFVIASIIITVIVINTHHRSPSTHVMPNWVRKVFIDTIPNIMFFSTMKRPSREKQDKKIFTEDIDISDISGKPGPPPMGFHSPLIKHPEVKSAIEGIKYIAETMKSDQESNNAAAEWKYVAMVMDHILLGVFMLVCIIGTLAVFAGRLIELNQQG
T1 sequence (Q07001 22-517): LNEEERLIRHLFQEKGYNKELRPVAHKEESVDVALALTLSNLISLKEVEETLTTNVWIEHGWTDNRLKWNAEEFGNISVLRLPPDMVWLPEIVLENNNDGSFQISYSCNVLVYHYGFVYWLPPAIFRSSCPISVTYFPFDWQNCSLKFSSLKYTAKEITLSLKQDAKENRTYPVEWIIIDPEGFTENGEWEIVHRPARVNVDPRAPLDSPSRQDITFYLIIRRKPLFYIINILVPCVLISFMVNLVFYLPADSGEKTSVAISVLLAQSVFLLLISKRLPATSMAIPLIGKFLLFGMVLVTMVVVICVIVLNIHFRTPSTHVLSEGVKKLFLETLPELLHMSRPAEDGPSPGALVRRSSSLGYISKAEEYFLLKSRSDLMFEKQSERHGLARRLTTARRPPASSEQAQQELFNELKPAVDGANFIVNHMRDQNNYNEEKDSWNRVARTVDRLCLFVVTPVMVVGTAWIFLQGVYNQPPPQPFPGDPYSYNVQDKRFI
T1 sequence (P07510 23-517): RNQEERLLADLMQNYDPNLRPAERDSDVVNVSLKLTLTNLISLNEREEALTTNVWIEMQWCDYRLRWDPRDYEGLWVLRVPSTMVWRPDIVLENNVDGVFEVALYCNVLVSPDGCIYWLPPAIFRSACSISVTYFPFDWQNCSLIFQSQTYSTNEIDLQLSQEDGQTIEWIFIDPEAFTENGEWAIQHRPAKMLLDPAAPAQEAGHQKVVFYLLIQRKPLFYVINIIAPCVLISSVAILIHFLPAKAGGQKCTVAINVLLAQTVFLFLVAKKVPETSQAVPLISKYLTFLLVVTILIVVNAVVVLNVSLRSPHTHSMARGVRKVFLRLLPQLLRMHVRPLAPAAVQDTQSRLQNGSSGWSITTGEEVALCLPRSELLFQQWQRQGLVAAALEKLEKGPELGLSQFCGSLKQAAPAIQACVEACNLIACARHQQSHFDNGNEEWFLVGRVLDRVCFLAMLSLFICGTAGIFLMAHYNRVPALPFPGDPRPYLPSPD
T2 sequence (P04757 26-499): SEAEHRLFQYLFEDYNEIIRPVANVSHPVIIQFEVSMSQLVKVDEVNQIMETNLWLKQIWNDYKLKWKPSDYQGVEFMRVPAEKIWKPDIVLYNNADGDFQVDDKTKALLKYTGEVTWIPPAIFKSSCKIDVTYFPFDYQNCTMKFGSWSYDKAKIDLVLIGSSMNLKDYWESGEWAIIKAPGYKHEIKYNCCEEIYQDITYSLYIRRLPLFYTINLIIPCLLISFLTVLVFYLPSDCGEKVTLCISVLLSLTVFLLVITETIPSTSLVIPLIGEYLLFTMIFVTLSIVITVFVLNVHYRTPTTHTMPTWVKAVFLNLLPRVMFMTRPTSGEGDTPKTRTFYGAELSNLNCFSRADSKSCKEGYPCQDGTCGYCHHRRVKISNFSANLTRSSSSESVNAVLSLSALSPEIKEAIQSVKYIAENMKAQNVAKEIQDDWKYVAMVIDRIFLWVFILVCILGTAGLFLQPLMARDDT
T2 sequence (P12392 21-495): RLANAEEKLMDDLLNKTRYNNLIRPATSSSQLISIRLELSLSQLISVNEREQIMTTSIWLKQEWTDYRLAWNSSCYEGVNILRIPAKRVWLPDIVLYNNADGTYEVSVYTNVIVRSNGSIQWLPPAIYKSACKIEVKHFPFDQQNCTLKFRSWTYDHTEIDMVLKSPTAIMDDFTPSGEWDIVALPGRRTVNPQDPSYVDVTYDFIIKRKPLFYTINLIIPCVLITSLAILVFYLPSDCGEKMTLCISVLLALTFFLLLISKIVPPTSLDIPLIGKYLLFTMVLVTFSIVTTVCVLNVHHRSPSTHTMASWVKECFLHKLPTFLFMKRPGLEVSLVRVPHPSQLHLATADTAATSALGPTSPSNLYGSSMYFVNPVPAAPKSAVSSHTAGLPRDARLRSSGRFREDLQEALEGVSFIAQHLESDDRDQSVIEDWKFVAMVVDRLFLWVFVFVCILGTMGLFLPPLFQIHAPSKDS

C1=C[C@H]2C[C@@H]1[C@@H](c1cccnc1)N2Cc1ccccc1 (relative stereo) [compound 9, (+/-)-endo-2-benzyl-3-(3-pyridyl)-2-azabicyclo[2.2.1]hept-5-ene]
effects at muscle sites (in words) [1]: desirably low effects at muscle sites | Muscle Effect [1]: 7 | Ganglion Effect [2]: 11 | effects at ganglionic sites (in words) [2]: desirably low effects at muscle sites and ganglionic sites | pEC50 ([3]; rat striatal synaptosomes): 4.96 | Dopamine Release Emax [3, 4]: 30 % nicotine | dopamine release (in words) [3]: induce dopamine release | pKi (CNS nicotinic receptors): 3.85

O=C(O)/C=C/C(=O)O.c1cncc(C2NC3CCC2CC3)c1 (racemic) [compound 5, (+/-)-3-(3-pyridyl)-2-azabicyclo[2.2.2]octane fumarate]
effects at muscle sites (in words) [1]: desirably low effects at muscle sites | Muscle Effect [1]: 9 | Ganglion Effect [2]: 3 | effects at ganglionic sites (in words) [2]: desirably low effects at muscle sites and ganglionic sites | pEC50 ([3]; rat striatal synaptosomes): 5.59 | Dopamine Release Emax [3, 4]: 4 % nicotine | pKi (CNS nicotinic receptors): 7.46 | binding to CNS nicotinic receptors (in words) (CNS nicotinic receptors): good high affinity binding to CNS nicotinic receptors

CN1C2CCC(CC2)C1c1cccnc1 (racemic) [Sample No. 6, (+/-)-2-methyl-3-(3-pyridyl)-2-azabiyclo[2.2.2]octane fumarate]
effects at muscle sites (in words) [1]: desirably low effects at muscle sites | Muscle Effect [1]: 30 | Ganglion Effect [2]: 21 | effects at ganglionic sites (in words) [2]: desirably low effects at muscle sites and ganglionic sites | pEC50 ([3]; rat striatal synaptosomes): 5.70 | Dopamine Release Emax [3, 4]: 10 % nicotine | pKi (CNS nicotinic receptors): 7.24 | binding to CNS nicotinic receptors (in words) (CNS nicotinic receptors): good high affinity binding to CNS nicotinic receptors

CN1[C@H]2C=C[C@H](CC2)[C@@H]1c1cccnc1 (relative stereo) [Sample No. 4, (+/-)-Exo-2-methyl-3-(3-pyridyl)-2-azabicyclo[2.2.2]oct-5-ene fumarate]
effects at muscle sites (in words) [1]: desirably low effects at muscle sites | Muscle Effect [1]: 8 | Ganglion Effect [2]: 8 | effects at ganglionic sites (in words) [2]: desirably low effects at muscle sites and ganglionic sites | pEC50 ([3]; rat striatal synaptosomes): 4.46 | Dopamine Release Emax [3, 4]: 17 % nicotine | pKi (CNS nicotinic receptors): 7.48 | binding to CNS nicotinic receptors (in words) (CNS nicotinic receptors): good high affinity binding to CNS nicotinic receptors

CN1CCC[C@H]1c1cccnc1 [Sample No. C-1, (S)-(-)-nicotine, reference compound]
Dopamine Release Emax [3, 4]: 100 % nicotine

C1=C[C@H]2CC[C@@H]1[C@@H](c1cccnc1)N2 (relative stereo) [Sample No. 1, (+/-)-endo 3-(3-pyridyl)-2-azabicyclo[2.2.2]oct-5-ene fumarate]
Muscle Effect [1]: 69 | Ganglion Effect [2]: 12 | pEC50 ([3]; rat striatal synaptosomes): 6.26 | Dopamine Release Emax [3, 4]: 14 % nicotine | pKi (CNS nicotinic receptors): 6.32

CN1[C@H](c2cccnc2)[C@@H]2C=C[C@H]1CC2 (relative stereo) [Sample No. 3, (+/-)-endo-2-methyl-3-(3-pyridyl)-2-azabicyclo[2.2.2]oct-5-ene fumarate]
Muscle Effect [1]: 0 | Ganglion Effect [2]: 0 | pEC50 ([3]; rat striatal synaptosomes): 4.89 | Dopamine Release Emax [3, 4]: 9 % nicotine | pKi (CNS nicotinic receptors): 5.20

CN1[C@H](c2cncc(Br)c2)[C@@H]2C=C[C@H]1C2 (relative stereo) [Sample No. 12, (+/-)-endo-2-methyl-3-[3-(5-bromopyridyl)]-2-azabicyclo[2.2.1]hept-5-ene]
Muscle Effect [1]: 2 | Ganglion Effect [2]: 4 | pEC50 ([3]; rat striatal synaptosomes): 5.78 | Dopamine Release Emax [3, 4]: 12 % nicotine | pKi (CNS nicotinic receptors): 5.68

C1=C[C@H]2CC[C@@H]1[C@H](c1cccnc1)N2 (relative stereo) [Sample No. 2, (+/-)-exo-3-(3-pyridyl)-2-azabicyclo[2.2.2]oct-5-ene fumarate]
Muscle Effect [1]: 103 | Ganglion Effect [2]: 65 | pEC50 ([3]; rat striatal synaptosomes): 6.52 | Dopamine Release Emax [3, 4]: 41 % nicotine | pKi (CNS nicotinic receptors): 8.70 | binding to CNS nicotinic receptors (in words) (CNS nicotinic receptors): good high affinity binding to CNS nicotinic receptors

CN1[C@H]2C=C[C@H](C2)[C@@H]1c1cccnc1 (relative stereo) [compound 11, (+/-)-exo-2-methyl-3-(3-pyridyl)-2-azabicyclo[2.2.1]hept-5-ene]
Muscle Effect [1]: 7 | Ganglion Effect [2]: 55 | pEC50 ([3]; rat striatal synaptosomes): 7.05 | Dopamine Release Emax [3, 4]: 58 % nicotine | pKi (CNS nicotinic receptors): 8.05 | binding to CNS nicotinic receptors (in words) (CNS nicotinic receptors): good high affinity binding to CNS nicotinic receptors

CCN1[C@H](c2cccnc2)[C@@H]2C=C[C@H]1C2 (relative stereo) [Sample No. 7, (+/-)-endo-2-ethyl-3-(3-pyridyl)-2-azabicyclo[2.2.1]hept-5-ene]
Muscle Effect [1]: 18 | Ganglion Effect [2]: 2 | pEC50 ([3]; rat striatal synaptosomes): 4.89 | Dopamine Release Emax [3, 4]: 22 % nicotine | pKi (CNS nicotinic receptors): 5.11

CN1[C@H](c2cccnc2)[C@@H]2C=C[C@H]1C2 (relative stereo) [Sample No. 10, (+/-)-endo-2-methyl-3-(3-pyridyl)-2-azabicyclo[2.2.1]hept-5-ene]
effects at muscle sites (in words) [1]: desirably low effects at muscle sites | Muscle Effect [1]: 25 | Ganglion Effect [2]: 18 | effects at ganglionic sites (in words) [2]: desirably low effects at muscle sites and ganglionic sites | pEC50 ([3]; rat striatal synaptosomes): 7.07 | Dopamine Release Emax [3, 4]: 44 % nicotine | pKi (CNS nicotinic receptors): 8.52 | binding to CNS nicotinic receptors (in words) (CNS nicotinic receptors): good high affinity binding to CNS nicotinic receptors

COc1ccc(CN2[C@H](c3cccnc3)[C@@H]3C=C[C@H]2C3)cc1 (relative stereo) [Sample No. 8, (+/-)-endo-2-(p-methoxybenzyl)-3-(3-pyridyl)-2-azabicyclo[2.2.1]hept-5-ene]
effects at muscle sites (in words) [1]: desirably low effects at muscle sites | effects at ganglionic sites (in words) [2]: desirably low effects at muscle sites and ganglionic sites | Dopamine Release Emax ([3]; Emax at 100 uM, % of release by (S)-(-)-nicotine): 15 % nicotine | pEC50 ([3]; rat striatal synaptosomes): < 4.00 | dopamine release (in words) [3]: induce dopamine release | pKi (CNS nicotinic receptors): 4.09
